In patent publication US20220242963A1, “B-CELL ACTIVATING CD73 ANTIBODIES” (CORVUS PHARMACEUTICALS, INC., priority 2018, published 2022):

Tested on: B cells (CD19+CD3−)
Assay: B cell activation in healthy donor PBMC, flow cytometry of surface markers / phospho ERK
Type: cell-based, human
Settings: human B lymphocytes
Text: With reference to FIGS. 2A-2E, each group of four bars from left to right represent data for: untreated donors, donors treated with human IgG1 isotype control, donors treated with BCR stimulation, and donors treated with CPI-006. The experiments for FIGS. 2A-2E are based on healthy donor PBMC treated overnight with flow cytometry analysis of surface markers on B cells (CD19^POS CD3^NEG). These lymphocyte markers are consistent with activation of B cells as well as other antigen presenting cell populations. […] The bar graph legend from top to bottom is representative of the data bars from left to right. […] For FIG. 2H the bar graph legend from top to bottom is representative of the data bars from left to right. For FIG. 2I the legend from top to bottom is representative of the data from top to bottom. […] For each group of four bars, the legend from top to bottom are representative of the bars from left to right.
PBMC were isolated from healthy donors and incubated with bead-bound anti-IgM, CPI-006 (10 μg/mL), or human IgG1 isotype control (10 μg/mL) overnight. Flow cytometry analysis was performed with gating on B cells (CD19+CD3−) and mean fluorescence intensity (MFI) was reported for staining with antibodies to the cell surface markers CD69, CD83, and CD25, as shown in FIGS. 2A-2C. PBMC were isolated from healthy donors and incubated with CPI-006, CPI-016, human IgG1 isotype control, and anti-human CD73 antibody, clone AD2 (available from Bio-Rad Antibodies) over a range of concentrations from about 0.1 μg/mL to more than 10 μg/mL. Flow cytometry analysis was performed with gating on B cells (CD19+CD3−) and mean fluorescence intensity (MFI) is reported for antibody staining of CD69, as shown in FIG. 2F. PBMC were isolated from healthy donors and incubated overnight with bead-bound anti-IgM or CPI-006 (1 μg/mL)+/−BTK inhibitor, ibrutinib (100 nM). Flow cytometry analysis was performed with gating on B cells (CD19+CD3−) and mean fluorescence intensity (MFI) is reported for antibody staining of CD69 and CD83, as shown in FIG. 2G. PBMC were isolated from healthy donors and incubated overnight with APCP (1 μM) or CPI-006 (1 μg/mL)+/−NECA (5′-N-ethylcarboxamidoadenosine). Flow cytometry analysis was performed with gating on B cells (CD19+CD3−) and mean fluorescence intensity (MFI) is reported for antibody staining of CD69, as shown in FIGS. 2H-2I. PBMC were isolated from healthy donors and incubated with the indicated treatments for 15 minutes. Flow cytometry analysis was performed with gating on the indicated cell populations and staining of phospho ERK was evaluated, as shown in FIG. 2J.

MEDI9447: anti-CD73 antibody described by Hay CM et al., Oncoimmunology 2016 [reference compound]
direct B cell activation: do not show this effect
